Test results from publication PMC10733463, “Berberine-microbiota interplay: orchestrating gut health through modulation of the gut microbiota and metabolic transformation into bioactive metabolites” (Frontiers in Pharmacology, 2023).

Legend:
[1] = system: T84 cells; test: Berberine metabolism in intestinal cell cultures, T84; type: in vitro ADME, human; settings: human, 0.1 µg/mL
Experimental: (§1) Caco-2 and T84 cells were seeded at 2 × 10^5 cells/well in 96-well plates and cultivated for 24 h in their respective medium, as described before. Cells were treated with 200 µL of 0.1 μg/mL berberine in antibiotic-free medium and incubated for 48 h. Berberine medium only was incubated in the same conditions as the cells and used as control for metabolite baseline levels. 100 μL of cell cultures or control medium were collected and centrifuged at 13,000 g for 10 min 80 μL of the supernatant was mixed with 20 µL 170 mg/mL L-ascorbic acid solution in water for dihydroberberine stabilization and stored at −20°C until metabolite analysis. All experiments were performed in triplicate at 37°C, 5% CO2. Metabolite production was expressed as a log2 fold change, calculated as the log2 of the ratio of the metabolite response at t = 48 h in the cell cultures over the metabolite response at t = 48 h in the control medium.
(§2) The column temperature was maintained at 25°C. The autosampler temperature was set at 10°C.

[2] = system: Caco-2 cells; test: Berberine metabolism in intestinal cell cultures, Caco-2; type: in vitro ADME, human; settings: human, Caco-2, 48 h, 0.1 µg/mL
Experimental: as §1, §2

[3] = system: Caco-2 monolayers; design: method as in Zhang et al., 2019; settings: in vitro, among berberine metabolites; ref Zhang et al., 2019; cited from earlier work
[4] = UPLC-MS/MS quantification of berberine and metabolites in ileal and caecal content; type: in vivo, Ross 308 broiler chickens; settings: 21 days
Excerpt: The study was undertaken following the guidelines of the ethics committee of the Faculty of Veterinary Medicine and Bioscience Engineering, Ghent University, in accordance with the EU Directive 2010/63/EU. One-day-old Ross 308 male broilers were obtained from a local hatchery and housed in pens on wood shavings. They were allotted into 4 groups, with three replicate pens per group each housing 8 chickens. The animals were not vaccinated. Water and commercial starter feed (day 1–12, FARM 1 Mash, Country’s Best, Versele Laga, Deinze, Belgium) or grower (day 13–21, FARM 2 mash, Country’s Best, Versele Laga, Deinze, Belgium) were provided ad libitum. The control group received the standard non-supplemented diets, whereas the chickens in other groups were fed the same feed supplemented with 0.1, 0.5 or 1 g berberine/kg feed throughout the whole trial period. At day 21, 4 birds per pen were weighted then euthanized by sodium pentobarbital injection for sampling. Individual jejunal, ileal, caecal and colonic contents were stored at −20°C for microbiota composition analysis (16S rRNA gene sequencing). Additionally, ileal and caecal content samples were collected and stored at −20°C for berberine and berberine-derived metabolite quantification. Duodenal tissue samples were collected and fixed in 4% phosphate buffered formaldehyde for histological analysis. Blood samples were collected in heparin tubes and centrifuged at 524 g for 10 min to recover the plasma fraction, which was further mixed with 17 mg/mL L-ascorbic acid for dihydroberberine stabilization, and stored at −20°C for berberine and berberine-derived metabolite quantification.
as §2
250 mg of ileal or caecal content was weighed in a 15 mL polypropylene centrifuge tube and 250 µL of ascorbic acid 170 mg/mL solution was added for stabilization of dihydroberberine, followed by brief vortexing. Subsequently, 25 µL of an internal standard solution containing 250 μg/mL of berberine-d6 and 2.5 μg/mL tetrahydropalmatine were added, followed by brief vortexing. A 2.5 mL volume of extraction solvent was then added, consisting of a 1% (v/v) formic acid solution in methanol. The sample was put on a rotary shaker set at 80 rpm for 20 min, followed by centrifugation (3,720 g, 10 min, 4°C). The supernatant was then diluted, by a factor 5 for measurement of low abundance components, and by a factor 2,000 for measurement of high abundance components. The 1/5 diluted sample extract was prepared directly in an autosampler vial as follows: 200 µL sample extract were mixed with 100 µL ascorbic acid 170 mg/mL solution and 700 µL Milli-Q water. For the 1/2,000 diluted sample extract, an intermediate 1/100 sample dilution was prepared by combining 500 µL sample extract and 49.5 mL of Milli-Q water. 50 μL was then transferred in an autosampler vial followed by the addition of 950 µL of Milli-Q water. For both dilutions, a 5 µL sample aliquot was injected onto the UPLC-MS/MS apparatus. Quantification was based on the ratio of the analyte peak area compared to the peak area of the internal standard tetrahydropalmatine for 1/5 diluted sample extracts, and on the ratio of the analyte peak area compared to the peak area of the internal standard berberine-d6 for 1/2,000 diluted sample extracts.
Calibration standards and quality control samples were prepared as follows: 250 mg of blank ileal or caecal content were supplemented with 250 µL of ascorbic acid 170 mg/mL solution, 25 µL mixed solution of berberine and metabolites (with the exception of dihydroberberine) at different levels, 25 µL of dihydroberberine solution, stabilized with 17 mg/mL ascorbic acid, at different levels and 25 µL of an internal standard solution containing 0.625 μg/mL of berberine-d6 and 2.5 μg/mL tetrahydropalmatine. The calibration curve was in the 62.5–5,000 ng/g range, and included 62.5, 125, 250, 500, 1,000, 2,500, and 5,000 ng/g levels. […]

[5] = system: B. coccoides (DSM 935); settings: Blautia coccoides, 10 µg/mL, pH 6
[6] = system: Anaerostipes butyraticus (35–7); settings: 35-7, chicken, 10 µg/mL, pH 6
Experimental: (§3) Six strains were tested for their ability to convert berberine into berberine-demethylated metabolites. […] Strains were sub-cultured overnight in M2GSC medium pH 6. The next day, caecal content from a 3-week-old broiler chicken was sampled in anaerobic conditions and 1:1,000 diluted in M2GSC medium pH 6 containing 10 μg/mL berberine. Caecal mixtures were enriched with 1:100 diluted overnight cultures of single bacteria, or with M2GSC (control), and incubated in a 24-well plate, for 48 h. […] Samples were collected and processed as described before. Each bacterial strain was tested in triplicate at 37°C–40°C under anaerobic conditions.
(§4) The UPLC instrument consisted of an Acquity H-Class Quaternary Solvent Manager and an Acquity FTN Sample Manager (Waters, Berchem, Belgium). For chromatographic separation, an Acquity UPLC® HSS T3 column (1.8 µm, 100 mm × 2.1 mm i.d.) was used, protected by a precolumn of the same type (VanGuardTM, 5 mm × 2.1 mm i.d.), both from Waters. […] The column temperature was maintained at 25°C. The autosampler temperature was set at 10°C. The UPLC effluent was sent from 1.2 min to 9.5 min by use of a divert valve to a Xevo TQ-S® triple quadrupole mass spectrometer from Water, equipped with an ESI ion source operating in the positive ionization mode from. The UPLC-MS/MS analysis was run under control of MassLynx software (v4.1), which was used for subsequent data processing as well. For the injection of 1/5 diluted intestinal content samples (see section Preparation of intestinal content samples (ileum and caecum)), the divert valve was used in addition from 7.1 min to 8.4 min to deviate the high amount of berberine and associated IS berberine-d6 eluting in that time window from the UPLC column directly to the waste, rather than to the MS detector to avoid oversaturation of the instrument, influencing subsequent sample extract injections at well. Operating conditions for the ESI source used in the positive ionization mode were optimized by direct infusion of all individual components in combination with the mobile phase at 50% A/50% B delivered at a flow rate of 0.3 mL/min. The following tune parameters were used for detection of all components: capillary voltage, 3 kV, cone voltage, 10 V, source offset, 50 V, source temperature, 150°C, desolvation temperature, 500°C, desolvation gas flow, 800 L/h, cone gas flow, 150 L/h, collision gas flow, 0.2 mL/min, ion energy 1 and 2, 0.5, LM 1 and LM 2 resolution, 3, HM 1 and HM 2 resolution, 15. Components were detected in MS/MS mode using component specific MRM (Multiple Reaction Monitoring) transitions (Supplementary Table S1). Since a commercial standard of thalifendine was not available, MS/MS detection parameters and calibration of berberrubine were used for the detection and quantification of thalifendine, which is a reasonable approach, since both compounds are isomers. No commercial reference standards were available for phase II metabolites, therefore “calculated” MRM transitions were defined as follows: [M + -Gluc] > M+ for glucuronide forms and [M + -SO3] > M+ for sulfate forms, where the loss of glucuronic acid or sulfate corresponded to a mass shift of 176 Da or 80 Da respectively. Phase II metabolites were quantified relatively using the berberine calibration curve ([Wang et al., 2017a]; [Kwon et al., 2020]).

[7] = system: Blautia luti (DSM 14534); settings: DSM 14534, chicken, 10 µg/mL, pH 6
Experimental: as §3, §4

[8] = system: Eubacterium limosum (LMG 28910); settings: LMG 28910, chicken, 10 µg/mL, pH 6
Experimental: as §3, §4

[9] = system: Blautia hydrogenotrophica (DSM 10507); settings: DSM 10507, chicken, 10 µg/mL, pH 6
Experimental: as §3, §4

[10] = system: Blautia hansenii (DSM 20583); settings: DSM 20583, chicken, 10 µg/mL, pH 6
Experimental: as §3, §4

[11] = system: B. coccoides (DSM 935); settings: DSM 935, chicken, 10 µg/mL, pH 6
Experimental: as §3, §4

[12] = rats, oral administration of berberine; cited from earlier work

SMILES	Log2(fold change) of metabolite response, cell culture over berberine control medium at 48 h [1]	Log2(fold change) of metabolite response, cell culture over berberine control medium at 48 h [2]	Permeability across Caco-2 monolayers [3]	Ratio caecum / ileum (concentration) ([4]; 0.1 g berberine/kg feed)	Ratio caecum / ileum (concentration) ([4]; 0.5 g berberine/kg feed)	Ratio caecum / ileum (concentration) ([4]; 1 g berberine/kg feed)	Log2(fold change) of metabolite response at 48 h, B. coccoides pure culture over berberine-medium [5]	Log2(fold change) of metabolite response at 48 h, culture with bacteria over control (berberine-medium + microbiota) [6]	Log2(fold change) of metabolite response at 48 h, culture with bacteria over control (berberine-medium + microbiota) [7]	Log2(fold change) of metabolite response at 48 h, culture with bacteria over control (berberine-medium + microbiota) [8]	Log2(fold change) of metabolite response at 48 h, culture with bacteria over control (berberine-medium + microbiota) [9]	Log2(fold change) of metabolite response at 48 h, culture with bacteria over control (berberine-medium + microbiota) [10]	Log2(fold change) of metabolite response at 48 h, culture with bacteria over control (berberine-medium + microbiota) [11]	Amount quantified in feces [12]
COc1cc2c(cc1OC)-c1cc3ccc(OC)c(OC)c3c[n+]1CC2 [Palmatine, palmatine chloride]	-0.72	-0.18												
COc1c(O)ccc2cc3[n+](cc12)CCc1cc2c(cc1-3)OCO2 [Thalifendine]			most permeable	6.68	29.03	21.17	9.30	0.21	-1.30	1.37	0.26	0.34	4.46	
COc1ccc2cc3[n+](cc2c1OC)CCc1cc(O)c(O)cc1-3 [Demethyleneberberine]			most permeable	15.66	30.48	32.10	1.71	0.15	1.34	0.21	-3.33e-003	-0.02	1.07	1.49%
